According to US9458120B2, “Phenoxypropanol derivative and pharmaceutical composition including the same” (KOREA INSTITUTE OF SCIENCE AND TECHNOLOGY, priority 2011, dated 2016):

What was measured:
[1] = target: α1G T-type calcium channel (Homo sapiens, UniProt O43497); test: Assay for T-type calcium channel inhibition activity (FDSS6000 calcium imaging, KCl activation); assay type: cell-based; settings: 75 s pre-treatment then KCl 75 mM, HEK293 cells expressing α1G T-type calcium channel and Kir2.1
Sequence of α1G T-type calcium channel (O43497 whole entry): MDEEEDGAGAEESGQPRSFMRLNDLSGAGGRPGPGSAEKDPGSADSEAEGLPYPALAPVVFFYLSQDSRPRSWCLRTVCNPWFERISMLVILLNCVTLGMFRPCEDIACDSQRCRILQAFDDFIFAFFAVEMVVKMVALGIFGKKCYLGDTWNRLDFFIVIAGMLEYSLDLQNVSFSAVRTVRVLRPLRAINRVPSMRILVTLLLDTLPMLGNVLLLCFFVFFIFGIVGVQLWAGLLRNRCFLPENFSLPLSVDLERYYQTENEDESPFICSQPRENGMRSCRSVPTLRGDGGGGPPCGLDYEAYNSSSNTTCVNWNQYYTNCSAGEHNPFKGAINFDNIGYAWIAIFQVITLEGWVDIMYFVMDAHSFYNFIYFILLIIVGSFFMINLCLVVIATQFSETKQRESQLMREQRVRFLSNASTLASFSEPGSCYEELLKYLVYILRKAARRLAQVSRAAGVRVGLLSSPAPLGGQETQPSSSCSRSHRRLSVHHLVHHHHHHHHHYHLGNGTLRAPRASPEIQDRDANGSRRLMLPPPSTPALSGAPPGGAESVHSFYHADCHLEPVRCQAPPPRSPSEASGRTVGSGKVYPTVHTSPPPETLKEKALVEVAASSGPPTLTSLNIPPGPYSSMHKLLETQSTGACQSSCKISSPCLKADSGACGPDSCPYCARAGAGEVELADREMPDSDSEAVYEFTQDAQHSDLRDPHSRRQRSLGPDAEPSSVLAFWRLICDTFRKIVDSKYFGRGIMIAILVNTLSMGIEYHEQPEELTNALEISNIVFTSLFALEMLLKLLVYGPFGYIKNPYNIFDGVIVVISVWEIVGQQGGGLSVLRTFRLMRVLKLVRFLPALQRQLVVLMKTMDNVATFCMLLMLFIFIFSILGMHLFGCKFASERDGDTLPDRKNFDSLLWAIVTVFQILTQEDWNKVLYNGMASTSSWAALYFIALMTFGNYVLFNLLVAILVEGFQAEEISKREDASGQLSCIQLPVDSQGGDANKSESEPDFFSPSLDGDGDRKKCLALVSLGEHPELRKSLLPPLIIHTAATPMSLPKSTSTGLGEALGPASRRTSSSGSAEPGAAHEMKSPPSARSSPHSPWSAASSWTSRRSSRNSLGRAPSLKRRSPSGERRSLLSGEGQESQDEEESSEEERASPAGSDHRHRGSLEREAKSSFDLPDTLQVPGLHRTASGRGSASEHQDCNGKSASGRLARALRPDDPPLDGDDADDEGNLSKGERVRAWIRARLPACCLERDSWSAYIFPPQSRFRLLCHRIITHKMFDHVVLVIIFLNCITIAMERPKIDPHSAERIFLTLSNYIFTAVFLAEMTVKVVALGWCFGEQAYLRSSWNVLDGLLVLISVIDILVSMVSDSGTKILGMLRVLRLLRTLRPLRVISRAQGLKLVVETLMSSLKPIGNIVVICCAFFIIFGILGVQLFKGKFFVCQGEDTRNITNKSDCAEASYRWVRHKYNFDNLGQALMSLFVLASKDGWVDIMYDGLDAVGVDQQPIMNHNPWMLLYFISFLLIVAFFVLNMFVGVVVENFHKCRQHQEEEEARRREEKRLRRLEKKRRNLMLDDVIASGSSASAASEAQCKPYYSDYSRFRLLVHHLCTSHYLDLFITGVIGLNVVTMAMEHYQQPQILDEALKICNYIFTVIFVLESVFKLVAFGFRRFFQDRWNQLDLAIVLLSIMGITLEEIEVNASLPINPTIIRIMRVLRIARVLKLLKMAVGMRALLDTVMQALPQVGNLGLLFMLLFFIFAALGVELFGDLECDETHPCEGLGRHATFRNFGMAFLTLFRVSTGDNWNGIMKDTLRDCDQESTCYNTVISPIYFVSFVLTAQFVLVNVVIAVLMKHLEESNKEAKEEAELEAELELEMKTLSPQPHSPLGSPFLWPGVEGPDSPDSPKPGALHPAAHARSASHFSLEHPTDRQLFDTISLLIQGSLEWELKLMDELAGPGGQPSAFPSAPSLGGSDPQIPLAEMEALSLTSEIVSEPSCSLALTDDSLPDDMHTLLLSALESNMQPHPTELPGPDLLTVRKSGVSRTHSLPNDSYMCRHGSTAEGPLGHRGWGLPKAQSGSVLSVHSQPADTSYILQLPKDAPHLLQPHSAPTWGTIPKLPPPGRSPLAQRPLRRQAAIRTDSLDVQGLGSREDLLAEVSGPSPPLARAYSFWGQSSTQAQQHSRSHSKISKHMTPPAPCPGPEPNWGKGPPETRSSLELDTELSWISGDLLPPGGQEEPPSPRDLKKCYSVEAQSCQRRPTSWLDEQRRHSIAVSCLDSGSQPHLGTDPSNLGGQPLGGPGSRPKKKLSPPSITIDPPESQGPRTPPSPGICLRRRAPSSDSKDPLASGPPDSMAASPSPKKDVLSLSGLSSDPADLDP
Procedure: At 12-24 hours before the assay for T-type calcium channel activity, cells of HEK293 cell line (α1G cell line: KCTC 10519BP, GenBank, Korea Research Institute of Bioscience and Biotechnology) which stably express α1G T-type calcium channel and Kir2.1, were sub-cultured in a poly-L-lysine (0.05 mg/ml) treated 96-well plate with the density of 4×10^4 per a well using a 96-well cell dispenser (Titertek). On the day of assay, the 96-well plate to which the cells were attached were washed three times with a HEPES buffer solution (unit mM: 150 NaCl, 5 KCl, 1 MgCl2, 2 CaCl2, 10 HEPES, 10 glucose, pH 7.4) using a 96-well plate automatic washing device (Bio Tek), and then reacted with a HEPES buffer solution containing 5 μM fluo-3/AM and 0.001% (w/v) Pluronic F-127 at room temperature for 1 hour, to label with fluorescent dye, and then further washed twice with the HEPES buffer solution. Thereafter, at 10 minutes before the measurement using a FDSS6000 device, a washing with a HEPES buffer solution containing 10 mM CaCl2 was conducted once more, and the final volume was adjusted to 81 μl. Besides the above 96-well plate containing the cells, additional two 96-well drug plates were provided, in which the 96-well plates contained KCl (final concentration: 75 mM) for activating T-type calcium channel and a blocker drug, respectively.
Since most of cell-based HTS (High throughput screening) devices are equipped with a liquid application system for drug injection, but have no liquid sucking system, the blocker drug to be tested and KCl were respectively provided at the five-times higher concentration in 10 mM CaCl2 HEPES buffer solution at the amount of 27 μl, diluted five-times at the final cell plate volume of 135 μl, and then used in this test. In this Experimental Example, therefore, FDSS6000 (Hamamatsu Photonics) was used as an alternative to HTS device.
Specific FDSS6000 measurement conditions are as follows: After recording the reference value of 20 seconds, the change of intracellular calcium concentration which induced by pre-treatment of the drug (the prepared […]) for 75 seconds followed by administration of KCl was measured, in which the percentage (%) inhibition effect of the test drug was determined, through estimating the area of ratio value of 340/380 in the control without treatment of the test drug as 100%. As a reference drug, 10 μM of mibefradil was always used.
For accurate calcium-imagination, the light sources of 4 xenon lamps in FDSS6000 were radiated to make the cells exposed selectively to the excitation wavelength (340 nm and 380 nm) by computer-controlled filter wheel. Data was obtained at interval of each 1.23 second. The emitter fluorescence light inflow through a 515 nm long-pass filter was obtained as an average 340/380 ratio value for each well in the 96-wells by a cooled CCD camera and digital fluorescence analyzer in the device. All image data and analysis were obtained by using a FDSS6000-exclusive program provided by Hamamatsu Photonics, as described above.

TREK-1 channel = target: T1, TREK-1 channel (Rattus norvegicus, UniProt Q920B6); test: Assay for TREK channel inhibition activity (whole cell patch clamp recording, COS7 cell transfected with GFP-rTREK-1); assay type: cell-based; settings: COS7 cells, GFP-rTREK-1, whole-cell patch clamp; for inhibition at 101 µM: COS-7, Table 3 (value ± spread), 101 μM [sic], read-out: block % at 101 μM; for inhibition at 10 µM: COS-7, Table 2, read-out: block % at 10 μM
T1 construct: expressed in transfected cells; host or cells: COS7 (Korean Cell Line Bank), transient transfection with Effectene
T1 sequence (Q920B6 1-426): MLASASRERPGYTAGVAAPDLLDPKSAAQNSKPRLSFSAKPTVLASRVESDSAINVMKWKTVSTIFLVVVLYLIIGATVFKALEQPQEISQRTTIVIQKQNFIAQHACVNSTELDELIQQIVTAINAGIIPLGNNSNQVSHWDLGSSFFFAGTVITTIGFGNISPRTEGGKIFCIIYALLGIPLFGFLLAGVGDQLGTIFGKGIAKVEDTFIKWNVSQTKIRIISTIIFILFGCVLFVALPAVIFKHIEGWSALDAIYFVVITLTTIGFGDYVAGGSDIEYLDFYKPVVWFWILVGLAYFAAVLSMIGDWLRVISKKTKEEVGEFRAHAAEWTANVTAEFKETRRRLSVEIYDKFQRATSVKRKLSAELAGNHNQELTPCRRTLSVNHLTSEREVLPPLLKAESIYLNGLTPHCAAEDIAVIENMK
Procedure: The inhibition activity of the compound of the present invention against TREK-1 channel was measured by measuring the physiological activity by whole cell patch clamp recording.
COS7 cell (obtained from Korean Cell Line Bank (KCLB)) was transfected with GFP-rTREK-1 gene (accession number: AY727922) using an Effectene transfection reagent (Qiagen), and cultured for 24 hours in an incubator at 37° C. As a culture medium, Dulbecco's modified Eagle's medium (DMEM, GIBCO products from Invitrogen) containing 10% by weight of fetal bovine serum (FBS) and 1% by weight of penicillin/streptomycin (5000 unit/ml) was used. The cells thus prepared were adhered on a cover glass, which was placed on a chamber, and then a recording solution (150 mM NaCl, 10 mM HEPES, 10 mM KCl, 2 mM CaCl2, 5.5 mM D-Glucose, all reagents were purchased from Sigma) was applied. A glass microelectrode was filled with an intracellular solution prepared with the composition of 150 mM KCl, 5 mM EGTA, 10 mM HEPES, 0.5 mM CaCl2, 1 mM MgCl2, 4 mM Mg-ATP, and 0.3 mM Na-GTP (all reagents were purchased from Sigma), followed by whole-cell patch clamp recording. The voltage was fixed at −70 mV using a Digidata 1322A data acquisition system (Molecular Devices) and an Axopatch 200A amplifier (Axon Instruments), and the current generated by applying a voltage ramp from −100 mV to +100 mV for 1 second was measured using a Clampex9.2 program. A difference between the current values measured at +100 mV and −100 mV was defined as a current in the above experiment. The currents before and after blocker treatment were measured so as to determine the inhibition activity.
Block %=100−(current after blocker treatment/current before blocker treatment)*100

SMILES	inhibition [1] [%]	inhibition at 101 µM (TREK-1 channel) [%]	inhibition at 10 µM (TREK-1 channel) [%]	block % at 100 μM (TREK-1 channel; Table 2) [%]	block % at 100 μM (TREK-1 channel; Table 3 (value ± spread)) [%]
O[C@H](COc1ccc(F)cc1)CN1CCC(N2CCCCC2)CC1 [KKRE10159, (S)-1-(1,4′-bipiperidin-1′-yl)-3-(4-fluorophenoxy)propan-2-ol]	6.37	13.4 ± 5.78	–	–	–
O[C@@H](COc1ccc(F)cc1)CN1CCC(N2CCCC2)CC1 [KKRE10160, (R)-1-(4-fluorophenoxy)-3-(4-(pyrrolidin-1-yl)piperidin-1-yl)propan-2-ol]	0.31	4.13 ± 4.43	–	–	–
O[C@H](COc1ccc(F)cc1)CN1CCC(N2CCCC2)CC1 [KKRE10161, (S)-1-(4-fluorophenoxy)-3-(4-(pyrrolidin-1-yl)piperidin-1-yl)propan-2-ol]	-0.06	8.28 ± 3.49	–	–	–
O=C(CN1CCN(C[C@H](O)COc2ccc(C(F)(F)F)cc2)CC1)NCc1ccc(C(F)(F)F)cc1 [KKRE10173, (S)-2-(4-(2-hydroxy-3-(4-(trifluoromethyl)phenoxy)propyl)piperazin-1-yl)-N-(4-(trifluoromethyl)benzyl)acetamide]	53.6	63.2 ± 7.6	63.2	–	–
Cc1ccc(CNC(=O)CN2CCN(C[C@H](O)COc3ccc(C(F)(F)F)cc3)CC2)cc1 [KKRE10174, (S)-2-(4-(2-hydroxy-3-(4-(trifluoromethyl)phenoxy)propyl)piperazin-1-yl)-N-(4-methylbenzyl)acetamide]	48.8	37.6 ± 5.55	37.6	88.17	88.17 ± 4.60
O=C(CN1CCN(C[C@H](O)COc2ccc(C(F)(F)F)cc2)CC1)NC1CCCCC1 [KKRE10175, (S)-N-cyclohexyl-2-(4-(2-hydroxy-3-(4-(trifluoromethyl)phenoxy)propyl)piperazin-1-yl)acetamide]	43.1	18.1 ± 6.92	18.1	74.61	74.61 ± 2.15
O=C(CN1CCN(C[C@@H](O)COc2ccc(C(F)(F)F)cc2)CC1)NC1CCCCC1 [KKRE10176, (R)-N-cyclohexyl-2-(4-(2-hydroxy-3-(4-(trifluoromethyl)phenoxy)propyl)piperazin-1-yl)acetamide]	43.9	33.5 ± 5.67	–	–	–
O[C@@H](COc1ccc(F)cc1)CN1CCC(F)(F)CC1 [KKRE10178, (R)-1-(4,4-difluoropiperidin-1-yl)-3-(4-fluorophenoxy)propan-2-ol]	37.6	66 ± 4.05	–	–	–
O[C@@H](COc1ccc(F)cc1)CN1CCC(O)(c2ccccc2)CC1 [KKRE10179]	16	19.9 ± 4.25	–	–	–
O[C@H](COc1ccc(F)cc1)CN1CCC(F)(F)CC1 [KKRE10180, (S)-1-(4,4-difluoropiperidin-1-yl)-3-(4-fluorophenoxy)propan-2-ol]	17.3	23.3 ± 10	–	–	–
O[C@H](COc1ccc(F)cc1)CN1CCC(O)(c2ccccc2)CC1 [KKRE10181]	35.4	53.9 ± 1.62	–	–	–
O[C@@H](COc1ccc(C(F)(F)F)cc1)CN1CCC(N2CCOCC2)CC1 [KKRE10182, (R)-1-(4-morpholinopiperidin-1-yl)-3-(4-(trifluoromethyl)phenoxy)propan-2-ol]	12.5	46.6 ± 6.25	–	–	–
O[C@@H](COc1ccc(C(F)(F)F)cc1)CN1CCC(N2CCCCC2)CC1 [KKRE10183, (R)-1-(1,4′-bipiperidin-1′-yl)-3-(4-(trifluoromethyl)phenoxy)propan-2-ol]	12	36.4 ± 7.38	–	–	–
O[C@@H](COc1ccc(C(F)(F)F)cc1)CN1CCC(N2CCCC2)CC1 [KKRE10184, (R)-1-(4-(pyrrolidin-1-yl)piperidin-1-yl)-3-(4-(trifluoromethyl)phenoxy)propan-2-ol]	9.54	37.4 ± 6.98	–	–	–
O[C@@H](COc1ccc(C(F)(F)F)cc1)CN1CCC(F)(F)CC1 [KKRE10185, (R)-1-(4,4-difluoropiperidin-1-yl)-3-(4-(trifluoromethyl)phenoxy)propan-2-ol]	14.8	60.8 ± 7.47	–	–	–
O[C@@H](COc1ccc(C(F)(F)F)cc1)CN1CCC(O)(c2ccccc2)CC1 [KKRE10186, (R)-1-(2-hydroxy-3-(4-(trifluoromethyl)phenoxy)propyl)-4-phenylpiperidin-4-ol]	46.1	54 ± 12.1	–	–	–
O[C@H](COc1ccc(C(F)(F)F)cc1)CN1CCC(N2CCOCC2)CC1 [KKRE10187, (S)-1-(4-morpholinopiperidin-1-yl)-3-(4-(trifluoromethyl)phenoxy)propan-2-ol]	10.1	49.2 ± 6.75	–	–	–
O[C@H](COc1ccc(C(F)(F)F)cc1)CN1CCC(N2CCCCC2)CC1 [KKRE10188, (S)-1-(1,4′-bipiperidin-1′-yl)-3-(4-(trifluoromethyl)phenoxy)propan-2-ol]	5.73	55.6 ± 0.23	–	–	–
Cc1ccc(OC[C@H](O)CN2CCN(CC(=O)NCc3ccccc3)CC2)cc1 [KKRE10196, (R)-N-benzyl-2-(4-(2-hydroxy-3-(p-tolyloxy)propyl)piperazin-1-yl)acetamide]	26	4.7 ± 1.04	–	–	–
Cc1ccc(OC[C@@H](O)CN2CCN(CC(=O)NCc3ccccc3)CC2)cc1 [KKRE10197, (S)-N-benzyl-2-(4-(2-hydroxy-3-(p-tolyloxy)propyl)piperazin-1-yl)acetamide]	27.1	13.5 ± 3.9	–	–	–
Cc1ccc(CNC(=O)CN2CCN(C[C@@H](O)COc3ccc(C)cc3)CC2)cc1 [KKRE10198, (R)-2-(4-(2-hydroxy-3-(p-tolyloxy)propyl)piperazin-1-yl)-N-(4-methylbenzyl)acetamide]	28.6	29.9 ± 3.9	29.9	–	–
